Data reported in US7728012B2, “Carboxamide compounds and their use as calpain inhibitors” (Abbott GmbH & Co. KG, priority 2006, dated 2010).

Columns and labels:
Assay type in all cases: biochemical
[1] = target: T1, calpain-I isolated from human erythrocytes (Homo sapiens, UniProt P07384); experiment: Calpain I kinetic fluorescence enzyme inhibition assay; settings: apparent Ki from IC50 by Cheng-Prussoff; average of 2 to 4 dose-effect plots
T1 construct: calpain-I—isolated from human erythrocytes; purchased Calbiochem 208713; host or cells: human erythrocytes (tissue isolate)
T1 sequence (P07384 1-714): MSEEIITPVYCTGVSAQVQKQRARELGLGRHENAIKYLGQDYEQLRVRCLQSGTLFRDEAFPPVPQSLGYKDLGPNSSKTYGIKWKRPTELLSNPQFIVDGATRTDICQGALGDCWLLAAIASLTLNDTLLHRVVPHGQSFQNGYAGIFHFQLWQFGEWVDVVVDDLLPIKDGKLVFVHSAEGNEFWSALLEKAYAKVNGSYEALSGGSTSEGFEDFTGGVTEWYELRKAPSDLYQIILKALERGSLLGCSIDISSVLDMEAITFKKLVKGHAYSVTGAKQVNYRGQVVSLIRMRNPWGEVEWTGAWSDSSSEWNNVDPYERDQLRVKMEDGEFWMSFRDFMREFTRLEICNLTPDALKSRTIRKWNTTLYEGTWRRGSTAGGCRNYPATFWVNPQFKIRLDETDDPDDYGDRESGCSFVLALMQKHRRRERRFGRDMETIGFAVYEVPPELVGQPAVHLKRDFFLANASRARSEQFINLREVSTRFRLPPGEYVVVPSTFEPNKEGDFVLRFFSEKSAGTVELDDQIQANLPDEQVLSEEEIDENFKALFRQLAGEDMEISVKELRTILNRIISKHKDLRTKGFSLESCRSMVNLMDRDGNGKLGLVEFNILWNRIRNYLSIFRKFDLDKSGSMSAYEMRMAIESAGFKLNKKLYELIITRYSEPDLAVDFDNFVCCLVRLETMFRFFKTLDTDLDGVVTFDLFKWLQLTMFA
T1 sequence (P04632 1-268 partner): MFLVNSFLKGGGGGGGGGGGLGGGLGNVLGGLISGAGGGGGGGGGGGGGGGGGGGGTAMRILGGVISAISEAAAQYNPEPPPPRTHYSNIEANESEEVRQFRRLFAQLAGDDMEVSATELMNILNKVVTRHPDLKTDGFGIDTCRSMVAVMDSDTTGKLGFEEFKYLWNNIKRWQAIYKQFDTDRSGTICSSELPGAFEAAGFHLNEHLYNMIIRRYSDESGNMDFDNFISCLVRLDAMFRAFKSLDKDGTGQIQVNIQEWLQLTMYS

[2] = target: T2, cathepsin B isolated from human liver (Homo sapiens, UniProt P07858); experiment: Cathepsin B kinetic fluorescence enzyme inhibition assay; settings: selectivity ratio versus calpain I
T2 construct: cathepsin B—isolated from human liver; purchased Calbiochem 219362; host or cells: human liver (tissue isolate)
Experimental: (§1) The following solutions and buffers were employed: • HBS (for 40 ml): 800 μl M HEPES; 2.16 ml 100 mM KCl; 4.8 ml 1M NaCl; 3.59 ml 5% glucose; 60 μl μM MgSO4; 400 μl 100 mM Na pyruvate, 28.19 ml water; pH 7.2-7.5. • lysis buffer (for 20 ml): 400 μl M Tris pH 8.2; 2.74 ml 1M NaCl; 520 μl 0.5M EDTA; 2 ml 10% triton X-100; 0.8 ml (=1:25) CompletePlus (1 tablet/2 ml H2O); 200 μl 100 mM Pefabloc; 13.34 ml water, pH 8.2. • TBST (10×) (for 1 l): 100 mM Tris (12.1 g); 1.5M NaCl (87 g); 1% Tween 20 (10 g), adjusted to pH 8. I Enzyme Inhibition In Vitro: • Testing for blockade of the corresponding enzymic activities was carried out by means of kinetic fluorescence assays (excitation 390 nm, emission 460 nm). • Apparent Ki values were calculated from the experimentally determined IC50 values by the Cheng-Prussoff relation assuming a reversible competitive enzyme inhibition. The Km values of the substrates used under the assay conditions indicated above were: 90 μM (Z-Phe-Arg-AMC, cathepsin B), 10 μM (Z-Gly-Pro-Arg-AMC, cathepsin K), 2 μM (Z-Phe-Arg-AMC, cathepsin L), and 30 μM (Z-Val-Val-Arg-AMC, cathepsin S). • The indicated Ki values are averages of the inhibition constants calculated on the basis of 2 to 4 independent dose-effect plots.
(§2) The following assays were used: • 1. Calpain I: • 20 nM calpain-I—isolated from human erythrocytes (Calbiochem #208713), 100 μM Suc-Leu-Tyr-AMC (Bachem #1-1355) as substrate in buffer with 62 mM imidazole, 0.3 mM CaCl2, 0.10% CHAPS, 0.05% BSA, 1 mM DTT at pH 7.3 and room temperature. • 2. Cathepsin B: • 0.25 nM cathepsin B—isolated from human liver (Calbiochem #219362), 100 μM Z-Phe-Arg-AMC (Bachem #I-1160) as substrate 50 mM MES, 2 mM EDTA, 0.05% Brij 35, 2.5 mM L-cysteine, pH 6.0, room temperature. • 3. Cathepsin K: • 3 nM cathepsin K—activated from recombinant human procathepsin K from E. coli (Calbiochem #342001), 10 μM Z-Gly-Pro-Arg-AMC (Biomol #P-142) as substrate in 50 mM MES, 2 mM EDTA, 0.05% Brij 35, 2.5 mM L-cysteine, pH 6.0, room temperature. • 4. Cathepsin L: • 1 nM cathepsin L—isolated from human liver (Calbiochem #219402), 2 μM Z-Phe-Arg-AMC (Bachem #1-1160) as substrate in 50 mM MES, 2 mM EDTA, 0.05% Brij 35, 2.5 mM L-cysteine, pH 6.0, room temperature. • 5. Cathepsin S: • 0.5 nM recombinant human cathepsin S from E. coli (Calbiochem #219343), 20 μM Z-Val-Val-Arg-AMC (Bachem #1-1540) as substrate in 50 mM MES, 2 mM EDTA, 0.05% Brij 35, 2.5 mM L-cysteine, pH 6.0, room temperature. • The results of the in vitro determination are indicated in Table 1. The following abbreviations are used in Table 1: • The “Calpain activity” column, ++ stands for a calpain Ki (Ki(calpain)) of ≦40 nM and + means: 40 nM<Ki(Calpain)≦100 nM. • The “Sel. cat. B” column indicates the Ki(cathepsin B)/Ki(calpain) ratio. In this connection, ++ means a Ki(cathepsin B)/Ki(calpain) ratio of ≧30 and + means 10≦Ki(cathepsin B)/Ki(calpain)<30. • The “Sel. cat. K” column indicates the Ki(cathepsin K)/Ki(calpain) ratio. In this connection, ++ means a Ki(cathepsin K)/Ki(calpain) ratio of ≧30 and + means 10≦Ki(cathepsin K)/Ki(calpain)<30. • The “Sel. cat. L” column indicates the Ki(cathepsin L)/Ki(calpain) ratio. In this connection, ++ means a Ki(cathepsin L)/Ki(calpain) ratio of ≧50 and + means 30≦Ki(cathepsin L)/Ki(calpain)<50. • The “Sel. cat. S” column indicates the Ki(cathepsin S)/Ki(calpain) ratio. In this connection, ++ means a Ki(cathepsin S)/Ki(calpain) ratio of ≧100 and + means 50≦Ki(cathepsin S)/Ki(calpain)<100.

[3] = target: T3, cathepsin K activated from recombinant human procathepsin K (Homo sapiens, UniProt P43235); experiment: Cathepsin K kinetic fluorescence enzyme inhibition assay; settings: selectivity ratio versus calpain I
T3 construct: purchased Calbiochem 342001; host or cells: E. coli
T3 sequence (P43235 115-329): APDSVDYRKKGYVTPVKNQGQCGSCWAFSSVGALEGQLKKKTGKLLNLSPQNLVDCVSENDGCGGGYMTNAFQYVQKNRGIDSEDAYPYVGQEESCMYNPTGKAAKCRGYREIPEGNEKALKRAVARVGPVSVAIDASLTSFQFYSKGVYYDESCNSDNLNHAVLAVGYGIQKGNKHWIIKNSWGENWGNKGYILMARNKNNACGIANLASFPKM
Experimental: as §1, §2

[4] = target: T4, cathepsin L isolated from human liver (Homo sapiens, UniProt P07711); experiment: Cathepsin L kinetic fluorescence enzyme inhibition assay; settings: selectivity ratio versus calpain I
T4 construct: cathepsin L—isolated from human liver; purchased Calbiochem 219402; host or cells: human liver (tissue isolate)
How it was run: (§3)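 Kinetic fluorescence (ex 390/em 460 nm) at room temperature in 50 mM MES, 2 mM EDTA, 0.05% Brij 35, 2.5 mM L-cysteine, pH 6.0. Cathepsin B (liver, 0.25 nM) with 100 μM Z-Phe-Arg-AMC; cathepsin L (liver, 1 nM) with 2 μM Z-Phe-Arg-AMC; recombinant E. coli cathepsin S (0.5 nM) with 20 μM Z-Val-Val-Arg-AMC. Ki via Cheng-Prusoff.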

[5] = target: T5, recombinant human cathepsin S (Homo sapiens, UniProt P25774); experiment: Cathepsin S kinetic fluorescence enzyme inhibition assay; settings: selectivity ratio versus calpain I
T5 construct: purchased Calbiochem 219343; host or cells: E. coli
How it was run: as §3

T4 sequence (P07711 114-333): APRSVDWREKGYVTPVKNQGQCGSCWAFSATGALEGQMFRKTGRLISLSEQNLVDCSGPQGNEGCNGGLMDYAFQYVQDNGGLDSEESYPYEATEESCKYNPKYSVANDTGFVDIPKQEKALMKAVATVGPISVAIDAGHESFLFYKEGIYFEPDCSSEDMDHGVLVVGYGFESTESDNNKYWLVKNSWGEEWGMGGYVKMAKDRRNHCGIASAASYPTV
T5 sequence (P25774 115-331): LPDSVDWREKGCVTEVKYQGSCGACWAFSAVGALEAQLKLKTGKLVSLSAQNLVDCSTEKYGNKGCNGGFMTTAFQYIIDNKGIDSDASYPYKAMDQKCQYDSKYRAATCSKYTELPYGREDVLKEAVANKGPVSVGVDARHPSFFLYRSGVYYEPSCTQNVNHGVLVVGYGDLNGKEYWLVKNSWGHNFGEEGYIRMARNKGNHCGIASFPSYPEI

Ki [1] [nM] | Sel cat. K (Ki(cathepsin K)/Ki(calpain) ratio) [3] | Structure (SMILES) | Sel cat. B (Ki(cathepsin B)/Ki(calpain) ratio) [2] | Sel cat. L (Ki(cathepsin L)/Ki(calpain) ratio) [4] | Sel cat. S (Ki(cathepsin S)/Ki(calpain) ratio) [5]
≤ 40 | + (10≦Ki(cathepsin K)/Ki(calpain)<30) | Cl.NC(=O)C(=O)C(Cc1ccccc1)NC(=O)c1cccnc1-n1ccc(-c2ccc(N3CCOCC3)cc2)n1 (centres unmarked) [Example 29, N-(3-Amino-1-benzyl-2,3-dioxopropyl)-2-[3-(4-morpholin-4-ylphenyl)-1H-pyrazol-1-yl]nicotinamide hydrochloride] | – | ++ (Ki(cathepsin L)/Ki(calpain) ratio of ≧50) | ++ (Ki(cathepsin S)/Ki(calpain) ratio of ≧100)
≤ 40 | + (10≦Ki(cathepsin K)/Ki(calpain)<30) | NC(=O)C(=O)C(CC1CCCCC1)NC(=O)c1cccnc1-n1ccc(-c2ccccc2)n1 (centres unmarked) [Example 66, N-[3-Amino-1-(cyclohexylmethyl)-2,3-dioxopropyl]-2-(3-phenyl-1H-pyrazol-1-yl)nicotinamide] | – | + (30≦Ki(cathepsin L)/Ki(calpain)<50) | ++ (Ki(cathepsin S)/Ki(calpain) ratio of ≧100)
≤ 40 | + (10≦Ki(cathepsin K)/Ki(calpain)<30) | NC(=O)C(=O)C(Cc1ccccc1)NC(=O)c1cc(Cl)cnc1-n1ccc(-c2ccc(N3CCOCC3)cc2)n1 (centres unmarked) [Example 31, N-(3-Amino-1-benzyl-2,3-dioxopropyl)-5-chloro-2-[3-(4-morpholin-4-ylphenyl)-1H-pyrazol-1-yl]nicotinamide] | ++ (Ki(cathepsin B)/Ki(calpain) ratio of ≧30) | + (30≦Ki(cathepsin L)/Ki(calpain)<50) | –
40 to 100 | + (10≦Ki(cathepsin K)/Ki(calpain)<30) | NC(=O)C(=O)C(Cc1ccccc1)NC(=O)c1cccnc1-n1ccc(C2CCCCC2)n1 (centres unmarked) [Example 192, N-[3-Amino-2,3-dioxo-1-(phenylmethyl)propyl]-2-(3-cyclohexyl-1H-pyrazol-1-yl)pyridine-3-carboxamide] | – | ++ (Ki(cathepsin L)/Ki(calpain) ratio of ≧50) | ++ (Ki(cathepsin S)/Ki(calpain) ratio of ≧100)

The remaining lines, values behind:

Structure (SMILES) | Ki [1] [nM] | Sel cat. K (Ki(cathepsin K)/Ki(calpain) ratio) [3] | Sel cat. B (Ki(cathepsin B)/Ki(calpain) ratio) [2] | Sel cat. L (Ki(cathepsin L)/Ki(calpain) ratio) [4] | Sel cat. S (Ki(cathepsin S)/Ki(calpain) ratio) [5]
N#Cc1cnc(-n2ccc(-c3ccccc3)n2)c(C(=O)NC(Cc2ccccc2)C(=O)C(N)=O)c1 (centres unmarked) [Example 82, N-(3-Amino-1-benzyl-2,3-dioxopropyl)-5-cyano-2-(3-phenyl-1H-pyrazol-1-yl)nicotinamide] | 40 to 100 | ++ (Ki(cathepsin K)/Ki(calpain) ratio of ≧30) | ++ (Ki(cathepsin B)/Ki(calpain) ratio of ≧30) | ++ (Ki(cathepsin L)/Ki(calpain) ratio of ≧50) | –
NC(=O)C(=O)C(Cc1ccccc1)NC(=O)c1cc(Cl)cnc1-n1ccc(-c2ccccc2)n1 (centres unmarked) [Example 27, N-(3-Amino-1-benzyl-2,3-dioxopropyl)-5-chloro-2-(3-phenyl-1H-pyrazol-1-yl)nicotinamide] | ≤ 40 | + (10≦Ki(cathepsin K)/Ki(calpain)<30) | ++ (Ki(cathepsin B)/Ki(calpain) ratio of ≧30) | + (30≦Ki(cathepsin L)/Ki(calpain)<50) | –
COc1ccc(OC)c(-c2ccn(-c3ncccc3C(=O)NC(Cc3ccccc3)C(=O)C(N)=O)n2)c1 (centres unmarked) [Example 151, N-[3-Amino-2,3-dioxo-1-(phenylmethyl)propyl]-2-{3-[2,5-bis(methyloxy)phenyl]-1H-pyrazol-1-yl}pyridine-3-carboxamide] | 40 to 100 | ++ (Ki(cathepsin K)/Ki(calpain) ratio of ≧30) | ++ (Ki(cathepsin B)/Ki(calpain) ratio of ≧30) | ++ (Ki(cathepsin L)/Ki(calpain) ratio of ≧50) | –
NC(=O)C(=O)C(Cc1ccccc1)NC(=O)c1cccnc1-n1ccc(-c2cccc(N3CCCC3)c2)n1 (centres unmarked) [Example 74, N-(3-Amino-1-benzyl-2,3-dioxopropyl)-2-[3-(3-pyrrolidin-1-ylphenyl)-1H-pyrazol-1-yl]nicotinamide] | ≤ 40 | ++ (Ki(cathepsin K)/Ki(calpain) ratio of ≧30) | ++ (Ki(cathepsin B)/Ki(calpain) ratio of ≧30) | – | ++ (Ki(cathepsin S)/Ki(calpain) ratio of ≧100)
